Measurements taken from ChEMBL document CHEMBL1201862, “PubChem BioAssay data set” (2004).
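Step 1: Grow cells in 96-well plates. Step 2: Expose to compound for 48 hours at 5 concentrations. Step 3: Interpolate endpoints linearly; if unreached, use highest concentration. GI50 = concentration required for 50% inhibition of growth.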 Calls of active or inactive are those of the source. No stated cut-off is given here; in the data, active = GI50 up to about 1.1 µM and inactive = higher.

Tests used:
Experiment in all cases: NCI anticancer screen, dose series, 48 h
A549 = test system: A549
HT-29 = test system: HT-29
UACC-62 = test system: UACC-62
U-251 = test system: U-251
OVCAR-5 = test system: OVCAR-5
RPMI-8226 = test system: RPMI-8226
Malme-3M = test system: Malme-3M
TK-10 = test system: TK-10
SNB-75 = test system: SNB-75
UACC-257 = test system: UACC-257
HOP-92 = test system: HOP-92
NCI-H23 = test system: NCI-H23
SK-MEL-5 = test system: SK-MEL-5
EKVX = test system: EKVX

Measured: GI50

CN(C)CC1(C)CC/C(=C\c2ccccc2)C1=O (centres undefined)
inactive: A549 > 100 µM | HT-29 > 100 µM | UACC-62 > 100 µM | U-251 > 100 µM | OVCAR-5 > 100 µM | RPMI-8226 27.5 µM | Malme-3M > 100 µM | TK-10 > 100 µM | SNB-75 > 100 µM | UACC-257 > 100 µM | HOP-92 > 100 µM | NCI-H23 > 100 µM | SK-MEL-5 > 100 µM

N#CC(C#N)=Cc1ccc(Oc2ccccc2)cc1
inactive: A549 > 100 µM | HT-29 22.4 µM | UACC-62 16.8 µM | U-251 23.4 µM | OVCAR-5 > 100 µM | RPMI-8226 18.1 µM | Malme-3M 21.7 µM | TK-10 55.5 µM | EKVX > 100 µM | SNB-75 25.1 µM | UACC-257 25.6 µM | NCI-H23 23.6 µM | SK-MEL-5 24.5 µM

CC1=C(C(=O)CC(=O)C(=O)Nc2cccc(Cl)c2C)Sc2ccccc2N1
inactive: A549 > 100 µM | HT-29 > 100 µM | UACC-62 > 100 µM | U-251 > 100 µM | OVCAR-5 > 100 µM | RPMI-8226 > 100 µM | Malme-3M > 100 µM | TK-10 > 100 µM | EKVX > 100 µM | UACC-257 > 100 µM | HOP-92 > 100 µM | NCI-H23 > 100 µM | SK-MEL-5 > 100 µM

S=c1nc(N2CCCCC2)ss1
inactive: A549 28.4 µM | HT-29 28.8 µM | UACC-62 17.5 µM | U-251 18.2 µM | OVCAR-5 > 100 µM | RPMI-8226 2.75 µM | Malme-3M 19.3 µM | TK-10 40.6 µM | EKVX 24.2 µM | SNB-75 24.4 µM | UACC-257 19.8 µM | HOP-92 17.5 µM | NCI-H23 47.5 µM | SK-MEL-5 16.6 µM

O=C1CCCC[C@H]1[C@H]1CCC[C@@H]([C@H]2CCCCC2=O)C1=O
inactive: A549 > 100 µM | HT-29 > 100 µM | UACC-62 > 100 µM | U-251 > 100 µM | OVCAR-5 > 100 µM | RPMI-8226 > 100 µM | Malme-3M > 100 µM | TK-10 > 100 µM | EKVX > 100 µM | SNB-75 > 100 µM | UACC-257 > 100 µM | HOP-92 > 100 µM | NCI-H23 > 100 µM | SK-MEL-5 > 100 µM

C/C(=N\NC(=O)CC(=O)Nc1ccc(Cl)cc1)c1cc2ccccc2oc1=O
inactive: A549 > 100 µM | HT-29 > 100 µM | UACC-62 > 100 µM | U-251 > 100 µM | RPMI-8226 > 100 µM | Malme-3M > 100 µM | TK-10 > 100 µM | EKVX > 100 µM | SNB-75 66.1 µM | UACC-257 > 100 µM | NCI-H23 > 100 µM | SK-MEL-5 > 100 µM

CCCN(CCCCC(NC(C)=O)C(=O)NCc1ccccc1)C(=O)N(C)N=O (centres undefined)
inactive: A549 > 100 µM | HT-29 > 100 µM | UACC-62 > 100 µM | U-251 > 100 µM | OVCAR-5 > 100 µM | RPMI-8226 > 100 µM | Malme-3M > 100 µM | TK-10 > 100 µM | EKVX > 100 µM | SNB-75 38.1 µM | UACC-257 > 100 µM | HOP-92 > 100 µM | NCI-H23 > 100 µM | SK-MEL-5 > 100 µM

COc1cc(C(=C2SCCS2)c2nccc3cc(OC)c(OC)cc23)c([N+](=O)[O-])cc1OC
inactive: A549 39.4 µM | HT-29 58.9 µM | UACC-62 74.3 µM | U-251 64.7 µM | OVCAR-5 > 100 µM | RPMI-8226 20.8 µM | Malme-3M 74.3 µM | TK-10 > 100 µM | EKVX 54 µM | SNB-75 45.1 µM | UACC-257 34 µM | HOP-92 8.71 µM | NCI-H23 40.8 µM | SK-MEL-5 23.7 µM

C/C(=N\NC(N)=S)C(CN(CC(C)C)CC(C)C)C(=O)Nc1ccc(C)cc1C (centres undefined)
inactive: A549 > 100 µM | HT-29 > 100 µM | UACC-62 > 100 µM | U-251 > 100 µM | OVCAR-5 > 100 µM | Malme-3M > 100 µM | TK-10 > 100 µM | EKVX 54.6 µM | SNB-75 90.6 µM | UACC-257 > 100 µM | HOP-92 > 100 µM | NCI-H23 > 100 µM | SK-MEL-5 > 100 µM

Cc1ccccc1C1=[N+]([O-])c2ccc(Cl)cc2C1=O
inactive: A549 19.6 µM | HT-29 5.01 µM | UACC-62 12.4 µM | U-251 17.7 µM | OVCAR-5 23.2 µM | RPMI-8226 3.31 µM | Malme-3M 16.9 µM | TK-10 20 µM | EKVX 12.5 µM | SNB-75 19.8 µM | UACC-257 13.1 µM | HOP-92 14.8 µM | NCI-H23 17.7 µM | SK-MEL-5 13.8 µM

CC(=O)NC1C(OCc2ccccc2)OC(COC(=O)CCCCCCCCCCNc2ccc([N+](=O)[O-])c3[nH]c4ccccc4c(=O)c23)C(O)C1OC(C)C(=O)NC(C)C(=O)NC(CCC(N)=O)C(=O)OCc1ccccc1 (centres undefined)
inactive: A549 > 100 µM | HT-29 > 100 µM | UACC-62 > 100 µM | U-251 > 100 µM | OVCAR-5 > 100 µM | RPMI-8226 > 100 µM | TK-10 > 100 µM | EKVX > 100 µM | SNB-75 > 100 µM | UACC-257 > 100 µM | NCI-H23 > 100 µM | SK-MEL-5 > 100 µM

O=S(=O)(c1ccccc1)N1CCC1c1ccccc1 (centres undefined)
inactive: A549 > 100 µM | HT-29 > 100 µM | UACC-62 77.8 µM | U-251 > 100 µM | RPMI-8226 43.2 µM | Malme-3M > 100 µM | TK-10 > 100 µM | EKVX > 100 µM | SNB-75 56.4 µM | UACC-257 63.2 µM | HOP-92 26.1 µM | NCI-H23 > 100 µM | SK-MEL-5 > 100 µM

Sc1ccccc1S
inactive: A549 > 100 µM | HT-29 > 100 µM | UACC-62 > 100 µM | U-251 > 100 µM | Malme-3M > 100 µM | TK-10 > 10 µM | EKVX > 10 µM | HOP-92 > 100 µM | NCI-H23 > 100 µM

Cc1ccc(S(=O)(=O)CNC(=S)CCCC(=S)NCS(=O)(=O)c2ccc(C)cc2)cc1
inactive: A549 > 100 µM | HT-29 > 100 µM | UACC-62 44.3 µM | U-251 59 µM | OVCAR-5 > 100 µM | RPMI-8226 21.4 µM | Malme-3M 50.7 µM | TK-10 > 100 µM | EKVX > 100 µM | SNB-75 > 100 µM | UACC-257 > 100 µM | HOP-92 20.2 µM | NCI-H23 35.4 µM | SK-MEL-5 79.1 µM

CCCCCCCC(=O)OCC1OC(n2cc(F)c(=O)[nH]c2=O)C(N)C(O)C1O (centres undefined)
inactive: A549 > 100 µM | HT-29 > 100 µM | UACC-62 > 100 µM | U-251 > 100 µM | OVCAR-5 > 100 µM | RPMI-8226 > 100 µM | Malme-3M > 100 µM | EKVX > 100 µM | SNB-75 > 100 µM | UACC-257 > 100 µM | HOP-92 > 100 µM | NCI-H23 > 100 µM | SK-MEL-5 > 100 µM

COc1cccc2c1C(=O)c1c(O)c3c(c(O)c1C2=O)CC(O)(C(C)=O)CC3OC1CC([N+](C)(C)C)C(O)C(C)O1 (centres undefined)
inactive: A549 > 100 µM | HT-29 94.2 µM | UACC-62 > 100 µM | U-251 55.1 µM | OVCAR-5 > 100 µM | RPMI-8226 22.5 µM | Malme-3M > 100 µM | TK-10 > 100 µM | EKVX > 100 µM | SNB-75 52.2 µM | UACC-257 > 100 µM | HOP-92 > 100 µM | NCI-H23 72.9 µM | SK-MEL-5 > 100 µM

N#C[C-](C#N)[n+]1ccc(Cl)cc1
inactive: A549 34.3 µM | HT-29 18 µM | UACC-62 15.9 µM | U-251 16.2 µM | OVCAR-5 18.7 µM | RPMI-8226 4.79 µM | Malme-3M 15.8 µM | TK-10 22.3 µM | EKVX 19 µM | SNB-75 17.5 µM | UACC-257 15.2 µM | HOP-92 15.3 µM | NCI-H23 16.2 µM | SK-MEL-5 16.1 µM

COS(=O)CCOC(=O)c1ccccc1SSc1ccccc1C(=O)OCCS(=O)OC (centres undefined)
inactive: A549 > 100 µM | HT-29 14.1 µM | UACC-62 20.5 µM | U-251 69.7 µM | OVCAR-5 40.9 µM | RPMI-8226 18.9 µM | Malme-3M 18.6 µM | TK-10 81.8 µM | EKVX > 100 µM | SNB-75 6.31 µM | UACC-257 15.6 µM | HOP-92 25.1 µM | NCI-H23 20.2 µM | SK-MEL-5 67 µM

Nc1nc(CCc2n[nH]c(N)n2)n[nH]1
inactive: A549 > 100 µM | HT-29 > 100 µM | UACC-62 > 100 µM | U-251 > 100 µM | OVCAR-5 > 100 µM | RPMI-8226 > 100 µM | Malme-3M > 100 µM | TK-10 > 100 µM | EKVX > 100 µM | SNB-75 > 100 µM | UACC-257 > 100 µM | HOP-92 > 100 µM | NCI-H23 > 100 µM | SK-MEL-5 > 100 µM

Cc1c2cc[n+](C)cc2c(C)c2c1[nH]c1ccc(OC(C)(C)C)cc12
inactive: A549 > 100 µM | HT-29 > 100 µM | UACC-62 > 100 µM | U-251 > 100 µM | OVCAR-5 > 100 µM | RPMI-8226 > 100 µM | Malme-3M > 100 µM | TK-10 > 100 µM | SNB-75 > 100 µM | UACC-257 > 100 µM | HOP-92 > 100 µM | NCI-H23 > 100 µM | SK-MEL-5 > 100 µM
